# Results as given in patent US20060236430A1, “Methods and compositions for producing male sterile plants” (priority 2003, published 2006).
# Entries after “also recorded” stand apart in the source; their conditions may differ.
# T1: hydroxyjasmonic acid sulfotransferase encoded by the AtST2a gene (Arabidopsis thaliana, UniProt Q8L5A7)
# T1 sequence (Q8L5A7 1-359): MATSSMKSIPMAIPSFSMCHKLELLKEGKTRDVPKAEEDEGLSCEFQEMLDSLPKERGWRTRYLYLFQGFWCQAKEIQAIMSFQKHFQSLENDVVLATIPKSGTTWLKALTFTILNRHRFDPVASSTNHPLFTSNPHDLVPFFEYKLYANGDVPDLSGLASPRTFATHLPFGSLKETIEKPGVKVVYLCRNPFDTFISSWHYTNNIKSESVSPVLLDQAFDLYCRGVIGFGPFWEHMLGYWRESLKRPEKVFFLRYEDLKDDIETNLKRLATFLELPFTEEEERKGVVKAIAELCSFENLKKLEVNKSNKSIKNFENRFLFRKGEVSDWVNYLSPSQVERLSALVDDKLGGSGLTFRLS
# Columns and labels:
# [1] = target: T1, hydroxyjasmonic acid sulfotransferase encoded by the AtST2a gene; experiment: Substrate specificity and kinetics of the AtST2a hydroxyjasmonic acid sulfotransferase; format: biochemical; settings: structurally related compounds
# Source text: (§1) SEQ ID NO 1 (FIG. 6; GenBank®: accession number NM_120783) corresponds to the gene AtST2a in Arabidopsis thaliana. SEQ ID NO 3 (FIG. 7) is an amino acid sequence deduced from SEQ ID NO 1. This amino acid sequence is of public domain and can be retrieved from GenBank®, accession number NM_120783. The AtST2a gene from Arabidopsis thaliana encodes a sulfotransferase that sulfonates 12-OHJA and 11-OHJA with high specificity.
# [2] = tested on: transgenic Nicotiana tabacum plants (line 7) expressing AtST2a; experiment: Normalization experiment: restoring normal anther development in male sterile transgenic tobacco expressing AtST2a; format: in vivo; settings: for restoration of the male sterile phenotype by exogenous application: transgenic tobacco overexpressing AtST2a, concentration not given
# Protocol: The apex of T2 plants of line 7 was soaked daily in a solution containing either: 0.05% Tween20 in water (control), 0.05% Tween20 in water containing 50 μM MeJA or 0.05% Tween20 in water containing 100 μM 12-OHJA. The treatments were started approximately 7 days before the appearance of the first flower buds and lasted a total of 14 days. A minimum of 5 plants for each treatment were analyzed in this study.
# In order to restore the phenotype, the apex of transgenic plants were soaked daily for 2 minutes in a solution containing 100 μM 12-OHJA dissolved in aqueous 0.05% TWEEN20. The application was started approximately 7 days prior to the appearance of the first flower bud and was continued for 7 days after the first flower appeared.
# [3] = tested on: A. thaliana opr3 mutant deficient in JA biosynthesis; experiment: Restoring the male sterile phenotype of the opr3 mutant by exogenous application to the inflorescence; format: in vivo, Arabidopsis thaliana; settings: data not shown
# [4] = substrate: O=C(O)CC1CCC(=O)C1CC=CCCO; experiment: Substrate specificity and kinetics of the AtST2a hydroxyjasmonic acid sulfotransferase; format: biochemical, Arabidopsis thaliana; settings: other: as substrate of the sulfotransferase; pH 7.5
# Source text: as §1
# [5] = substrate: CC(O)C=CCC1C(=O)CCC1CC(=O)O; experiment: as above; format: biochemical, Arabidopsis thaliana; settings: other: as substrate of the sulfotransferase; pH 7.5
# Source text: as §1
molecule,measurement,setting,value
CC/C=C/CC1C(O)CCC1CC(=O)O (stereo not drawn) [cucurbic acid],acceptance as substrate by the enzyme,[1],did not accept
CCCCC/C=C\C/C=C\C/C=C\C/C=C\CCCCO [arachidonyl alcohol],acceptance as substrate by the enzyme,[1],did not accept
"O=C(O)CC1CCC(=O)C1CC=CCCO (stereo not drawn) [12-OHJA, 3-Oxo-2-(5-hydroxy-2-pentenyl)-cyclopentane-1-acetic acid]",restoration of normal anther development,"[2]; 100 μM in aqueous 0.05% TWEEN20, apex of line 7 soaked daily for 2 minutes, 14 days",restoration of the mutant phenotype; also recorded: restored normal anther development
same,production of viable pollen,[2]; apex of transgenic plants treated for 14 days (FIG. 5),production of viable pollen
same,restoration of the male sterile phenotype by exogenous application,[2],could be restored
same,restoration of the male sterile phenotype,[3],restore the male sterile phenotype
"CC/C=C\C[C@H]1C(=O)CC[C@@H]1CC(=O)O [JA, jasmonic acid]",restoration of the male sterile phenotype by exogenous application,[2],could be restored
hydroxyjasmonic acid sulfotransferase encoded by the AtST2a gene (Arabidopsis thaliana) (protein) MATSSMKSIPMAIPSFSMCHKLELLKEGKTRDVPKAEEDEGLSCEFQEMLDSLPKERGWRTRYLYLFQGFWCQAKEIQAIMSFQKHFQSLENDVVLATIPKSGTTWLKALTFTILNRHRFDPVASSTNHPLFTSNPHDLVPFFEYKLYANGDVPDLSGLASPRTFATHLPFGSLKETIEKPGVKVVYLCRNPFDTFISSWHYTNNIKSESVSPVLLDQAFDLYCRGVIGFGPFWEHMLGYWRESLKRPEKVFFLRYEDLKDDIETNLKRLATFLELPFTEEEERKGVVKAIAELCSFENLKKLEVNKSNKSIKNFENRFLFRKGEVSDWVNYLSPSQVERLSALVDDKLGGSGLTFRLS,Km,[4],11 µM
same,Km,[5],60 µM
